Source: patent publication US20070015813A1, “Treatment of protein folding disorders” (QUEEN'S UNIVERSITY AT KINGSTON, priority 2005, published 2007)

Tests used:
Aβ1-42 = target: T1, Aβ1-42 (Homo sapiens, UniProt P05067); test: Kinetic Thioflavin T (ThT) aggregation assay of Aβ1-42; format: biochemical; conditions: 20 μM Aβ1-42, kinetic ThT assay
T1 construct: Aβ^1-42 (AnaSpec, lot 45685); purchased AnaSpec
Description: Aβ^1-42 (1.0 mg) was either pretreated with HFIP in the same manner as Aβ^1-40 or this step was omitted. After removing HFIP, when appropriate, Aβ^1-42 was dissolved in 1% NH3 (aq.) (200 μL) and sonicated for 1 min. The solution was diluted with Tris-HCl (5.7 mL, 20 mM, pH 7.4), the pH adjusted to 7.4 with concentrated HCl (aq.) and the solution filtered using a syringe filter (0.2 μm). Prior to use in the ThT aggregation assay, the solution was diluted with an equal volume of 8 μM Thioflavin T (ThT) in Tris-HCl (20 mM, pH 7.4, 300 mM NaCl).
(§1) Aliquots (200 μL) of Aβ^1-40, Aβ^1-42, tau441 or α-synuclein with ThT or ThS were added to wells of a black polystyrene 96-well plate, followed by 2 μL of a compound in DMSO (various concentrations), or DMSO alone (controls). For α-synuclein, sodium dodecyl sulfate solution (2.0 μL, 30 mM) was also added to each well to induce aggregation. Incubations were performed in triplicate and were taken to contain 20 μM Aβ^1-40 or Aβ^1-42, 6 μM tau441 or 4 μM α-synuclein. Plates were covered with clear polystyrene lids and incubated at 37° C. in a GENios microplate reader obtained from Tecan Group Limited, Mannedorf, Zurich. For Aβ^1-40, tau441 and α-synuclein, fluorescence readings (λex=450 nm, λem=480 nm) were taken every 15 min., after first shaking at high intensity for 15 sec. and allowing to settle for 10 sec. before each reading. For Aβ^1-42, readings were taken every 5 min.
The absorbance of each compound was measured under the conditions used during testing, though on ten times the scale (2 mL), to ensure no significant quenching interfered with the assay. This step was also used to identify whether compounds were completely soluble under testing conditions.
FIG. 7 depicts inhibition of Aβ^1-42 aggregation by various synthesized bi-aromatic compounds and positive controls morin (Ono K, Yoshiike Y, Takashima A, Hasegawa K, Naiki H, Yamada M. 2003. J Neurochem 87:172-81) and RS-0406 (Walsh D M, Townsend M, Podlisny M B, Shankar G M, Fadeeva J V, Agnaf O E, Hartley D M, Selkoe D J. 2005. J Neurosci 25:2455-62) in the kinetic ThT assay. Same conditions as for Aβ^1-40, FIG. 1. Compound concentrations were 100 μM in (A), 20 μM in (B), except for RS-0406, which was tested at 100 μM, and 20 μM in (C).

α-synuclein = target: T2, α-synuclein (Homo sapiens, UniProt P37840); test: α-Synuclein aggregation ThT fluorescence assay; format: biochemical; conditions: α-Synuclein (6 μM), 10 μM ThT, pH 7.4, 37° C., compound 100 μM or as indicated
T2 construct: purchased rPeptide, Bogart, GA
Description: α-Synuclein (1.0 mg) was dissolved directly in Tris-HCl (11.53 mL, 20 mM, pH 7.4, 100 mM NaCl) containing DTT (5 mM) and ThT (10 μM).
as §1, with “Incubations were performed in triplicate and were taken to contain 20 μM Aβ^1-40 or Aβ^1-42, 6 μM tau441 or 4 μM α-synuclein.” left out
FIG. 12 depicts inhibition of α-synuclein aggregation by synthesized bi-aromatics and positive control morin (K, Yamada M. 2006. J Neurochem 97:105-15). Aggregation conditions: α-Synuclein (6 μM) was incubated in covered black 96-well polystyrene microplates in Tris-HCl (20 mM, pH 7.4), 10 μM ThT, 1% DMSO with compound concentrations of 100 μM (A) or as indicated (B). Plates were heated at 37° C. in a Tecan Genios microplate reader. […] Fluorescence readings: fluorescence was measured every 15 min. […]

T1 sequence (P05067 672-713 limits assumed): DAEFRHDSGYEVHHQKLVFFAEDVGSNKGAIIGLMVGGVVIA

- inhibition of Aβ1-42 aggregation, as measured by ThT fluorescence (Aβ1-42): inhibition
- inhibition of α-synuclein aggregation (ThT fluorescence) (α-synuclein): inhibition
SMILES: O=c1c(O)c(-c2ccc(O)cc2O)oc2cc(O)cc(O)c12 [morin]
